Values of other authors in patent US9005898B2, “Method for controlling hair growth, method for selecting or evaluating hair growth control agent, and hair growth suppression agent” (Kao Corporation, priority 2010, dated 2015).

System: human hair follicle
Settings: in a dose-dependent manner; Patent Document 7

SMILES: O=CN1CC/C(=C\c2ccc3c(c2)OCO3)C1=O [KNK437]
- growth of the human hair follicle: reduced
